Source: US12076307B2, “Compositions for prevention or treatment of acute radiation syndrome and other radiation exposure” (priority 2017, dated 2024)

Tested on: Balb/c mice, 6.11 Gy TBI
Assay: Structural analog / calorie effect study: EC-18, PLH, olive oil in 6.11 Gy ARS model
Format: in vivo, mouse
Details: 250 mg/kg daily
Method: Similarly, a structural analog efficacy study was conducted to identify the optimally functional molecule in the ARS murine model. The study was performed with the structural analog in which the acetyl group in EC-18 is replaced with a hydroxyl group (yielding palmitic linoleic hydroxyl glycerol, PLH) in 20 Balb/c mice (10 female and 10 male) per group. Mice were irradiated with TBI of 6.11Gy at day 0 and 250 mg/kg of EC-18 or PLH were given daily in-life.
The purpose of this study was to assess whether extra calories of EC-18 contribute to the enhanced survival in mice after exposure to a whole-body sublethal dose of γ-radiation. The study was performed with the structural analog in which the acetyl group in EC-18 is replaced with a hydroxyl group (yielding PLH) in a total of 100 BALB/c mice ([…]; 20 animals per study group) aged at 11 weeks. Mice were irradiated with TBI of 6.11Gy at day 0 and the same dosage (250 mg/kg) of EC-18, PLH, or olive oil (vehicle control) were given daily in-life.

CCCCC/C=C\C/C=C\CCCCCCCC(=O)OC(CO)COC(=O)CCCCCCCCCCCCCCC (stereo not drawn) [PLH, palmitic linoleic hydroxyl glycerol, reference compound]
No. of mice that survived/total: 8/20
Survival: 40%
Survival time of decedents, Mean ± SEM: 18.8 ± 1.6 days
Survival time of decedents, Median: 18 days
body weight loss induced by irradiation: aggravated body weight loss
survival compared to control group (250 mg/kg): no statistically significant difference
